Read-outs that look alike come from different tables or passages of the source.
Experiment: Mouse PK&BBB (pharmacokinetics and brain penetration)
Format: in vivo, CD-1 mice
Experimental: In this assay, the pharmacokinetic characteristics and ability to penetrate the blood-brain barrier of the compounds of the present application were assayed after administration of some of the compounds of the present application to SD rats, CD-1 mice or beagle dogs by single oral administration and intravenous injection.
(§1) 1. Intravenous (IV) injection group: an appropriate amount of the assay compound was weighed, and completely dissolved in an appropriate volume of vehicle. The mixture was stirred, vortexed and/or sonicated. Once a solution was obtained, the vehicle was gradually added to a final volume to reach the target concentration. The solution was vortexed, and sonicated to obtain a homogeneous solution. The solution was filtered through a 0.22 m PVDF membrane.
as §1, with “2. Oral (PO)” for “1. Intravenous (IV) injection”, “solution.” for “solution. The solution was filtered through a 0.22 m PVDF membrane.”
Meanwhile, the IV group was not fasted and the PO group was fasted overnight (>12 hrs) and given food 2 hrs after drug administration. All animals had free access to water. The dosing regimen and pharmacokinetic sampling regimen are given in Table 10 and Table 11 below, respectively.
Mice were administered according to the above protocol, and blood and brain tissue samples were collected and processed at predetermined time points (collection and processing were performed according to conventional methods in the art).
The brain was weighed and homogenized by adding 4 times of ultrapure water. Six times volume of acetonitrile was added respectively to the whole blood samples and brain homogenate (20 times volume of acetonitrile was added to the whole blood sample of mouse PK). The mixture was vortexed for 1 min and then centrifuged at 4° C., 4500 rpm for 15 min. According to the instrument response, the supernatant was diluted with diluent and the sample was analyzed by LC/MS.
Pharmacokinetic parameters were calculated using WinNonlin software. The following pharmacokinetic parameters were calculated if appropriate plasma/whole blood drug concentration-time data were available: CL (clearance); Vd (apparent volume of distribution); T1/2 (elimination half-life time); Cmax (peak concentration); Tmax (time to peak); AUC (area under plasma drug concentration-time curve); MRT (mean retention time); F % (bioavailability).

[1] = CD-1, mouse, whole blood, iv, 2 mg/kg, IV 2 mg/kg, read-out: Blood drug concentration
[2] = CD-1, mouse, whole blood, po, 20 mg/kg, PO 20 mg/kg, read-out: Blood drug concentration

Compound `O=C(C1CCN(c2cc(-c3cc(OCCCO)ccc3F)ccn2)CC1)N1N=CC[C@H]1c1cc(F)cc(F)c1` (racemic) [Example 40] has a Kp at 2 h (CD-1, brain / whole blood, PO 20 mg/kg, 2 h after administration, read-out: Brain/blood ratio) of 1.85, a concentration at 2 h (CD-1, mouse, brain, po, 20 mg/kg, PO 20 mg/kg, 2 h after administration, read-out: Brain concentration) of 244 ng/g and a concentration at 0 h [1] of 0 ng/mL. It also gave a concentration at 0.083 h (CD-1, mouse, whole blood, iv, 2 mg/kg, IV 2 mg/kg, 0.083 hr, read-out: Blood drug concentration) of 632 ± 86 ng/mL, a concentration at 0.25 h [1] of 323 ± 81 ng/mL and a concentration at 0.5 h [1] of 150 ± 53 ng/mL. The concentration at 1 h [1] was 60.7 ± 28.5 ng/mL, the concentration at 2 h (CD-1, mouse, whole blood, iv, 2 mg/kg, IV 2 mg/kg, 2 hr, read-out: Blood drug concentration) was 12.3 ± 8.4 ng/mL and the concentration at 4 h [1] was 1.77 ± 1.12 ng/mL. The concentration at 7 hr [1] was 0.854 ng/mL, the concentration at 0 h [2] was 0 ng/mL and the concentration at 0.25 h [2] was 284 ± 26 ng/mL. For the same compound, the concentration at 0.5 h [2] was 405 ± 46 ng/mL, the concentration at 1 h [2] was 399 ± 77 ng/mL and the concentration at 2 h (CD-1, mouse, whole blood, po, 20 mg/kg, PO 20 mg/kg, 2 hr, read-out: Blood drug concentration) was 163 ± 2 ng/mL. It also gave a concentration at 4 h [2] of 34.9 ± 19 ng/mL, a concentration at 7 hr [2] of 4.85 ± 3.83 ng/mL and a concentration at 2 h (CD-1, mouse, whole blood, po, 20 mg/kg, PO 20 mg/kg, whole blood, 2 h after administration, read-out: Blood drug concentration) of 132 ng/mL. The AUC(0-inf) (CD-1, whole blood, IV 2 mg/kg) was 308 ± 82 ng·h/mL, the AUC(0-t) (CD-1, whole blood, IV 2 mg/kg) was 307 ± 82 ng·h/mL and the Vd (CD-1, whole blood, IV 2 mg/kg) was 6.97 ± 1.13 L/kg. It also gave a half-life (CD-1, whole blood, IV 2 mg/kg) of 45.3 ± 17.9 min, a clearance (CD-1, whole blood, IV 2 mg/kg, read-out: Cl—obs) of 114 ± 30.5 mL/min/kg and an AUC(0-inf) (CD-1, whole blood, PO 20 mg/kg) of 869 ± 57 ng·h/mL. The AUC(0-t) (CD-1, whole blood, PO 20 mg/kg) was 861 ± 54 ng·h/mL, the Cmax (CD-1, whole blood, PO 20 mg/kg) was 421 ± 64 ng/mL and the Tmax (CD-1, whole blood, PO 20 mg/kg) was 50 ± 17.3 min. For the same compound, the half-life (CD-1, whole blood, PO 20 mg/kg) was 58 ± 12.5 min and the bioavailability (CD-1, whole blood, PO 20 mg/kg vs IV 2 mg/kg) was 28.2 ± 1.9%.

Reference: patent US20250074892A1, “CARBONYL BRIDGED HETEROCYCLIC COMPOUND, AND COMPOSITION AND APPLICATION THEREOF” (BEIJING SCITECH-MQ PHARMACEUTICALS LIMITED, priority 2022, published 2025)
